For one data set, the system named is 3T3-L1 pre-adipocytes. Description: Potentiation of insulin-stimulated lipogenesis in 3T3-L1 adipocytes. The data set is classed as cell-based. As to conditions: over insulin control = 1. Here is the method: 3T3-L1 pre-adipocytes were grown to confluence in 25 ml culture flasks in DMEM (Dulbecco's Modified Eagle's Medium, with 25 mM glucose) containing 10% fetal calf serum (FCS) and antibiotics in a humidified atmosphere of 5% CO2 and 95% air at 37° C. The medium was changed every 2-3 days. The cells were trypsinised at confluency using 0.25% trypsin and transferred to another flask.
For the assay, cells were grown in 24 well plates. Induction of differentiation was done when the cells had grown to confluency with DMEM containing 5% FCS and supplemented with 0.5 mM IBMX (3-Isobutyl-1-methylxanthine), 0.5 μM DEX (dexamethasone) and 1 μg/ml insulin. […] The medium was changed three times, each at an interval of 2 days. On the day of termination of medium changes, lipogenesis assay was performed.
3T3-L1 cells were grown to confluency in 24 well plates. […] On the day of termination of the assay the cells were incubated in […] KRHB (Krebs-Ringer Hepes buffer) for 2 hr at 37° C. in a CO2 incubator. This was replaced with fresh KRHB with 0.1 mM glucose containing 100 nM insulin, test compound or insulin plus test compound. Lipogenesis was initiated by the addition of 20 μl of 50 μCi/ml [^3H]-D-Glucose to each well and incubation for 90 min at 37° C. in a CO2 incubator. The reaction was terminated by aspirating the medium from each well and washing the cells rapidly 3 times with ice-cold PBS (phosphate buffered saline). 500 μl of 0.2 N NaOH was added to lyse the cells. 450 μl was aliquoted into scintillation vials and scintillation cocktail added. The vials were read in Liquid Scintillation Counter. Results are expressed as fold activation of the standard or test compound over the control (Table 2).

Data set [1] has as its system isolated rat hepatocytes. Description: Inhibition of gluconeogenesis in isolated rat hepatocytes. It counts as cell-based. As to conditions: 5 mM fructose. Here is the method:
Assay protocol for determination of inhibition of gluconeogenesis by compounds in isolated rat hepatocytes:
Hepatocytes were isolated by collagenase digestion of perfused livers from male Wistar rats fasted overnight according to the method described in J. Cell. Science., 56, 233-244, 1982, the disclosure of which is incorporated by reference for the teaching of the method.
(§1) The assay was done in three groups: basal, control and test. The test compounds were added to the vials at different concentrations. The isolated hepatocytes were added to the vials and they were incubated at 37° C. for 15 min. After 15 min, 5 mM fructose (precursor for gluconeogenesis) was added to the control and test group. Vials were again incubated at 37° C. for one hour with constant shaking (80 cycles/min.). Incubation was terminated by centrifuging the reaction mixture at 3000 rpm for 5 min. The supernatant was used for determination of both glucose and lactate dehydrogenase (LDH) (Table 1).
An active compound would decrease the amount of glucose formed, which is read at 520 nm by glucose oxidase-peroxidase method.

Data set [2] deals with isolated rat hepatocytes. Description: LDH leakage from isolated rat hepatocytes. The data set is classed as cell-based. How it is done:
as §1
The LDH activity is measured, by the method described in Meth. Enz. Ana. 3, 118-125, 1984, the disclosure of which is incorporated by reference for the teaching of the method, as the amount of pyruvate consumed by continuously monitoring the decrease in absorbance due to oxidation of NADH (Nicotinamide Adenine Dinucleotide-reduced form) at 339 nm.
A general note: LDH in the medium is a marker of cell lysis.

The test system of data set [3] is STZ induced diabetic rats. The data set can be described thus: Streptozotocin-induced diabetes in rats, blood glucose. It counts as in vivo, male Wistar rats. The settings on record: for Percent reduction in blood glucose: STZ diabetic rats. Here is the method: Diabetes was induced in male Wistar rats by intraperitoneal (i.p.) injection of streptozotocin (STZ) (60 mg/kg) dissolved in 0.05 M citrate buffer, pH 4.6. Plasma glucose levels were estimated 48 hours after STZ administration. […] The rats were divided into […] (n=8 in each group): the first (control) group consisted of untreated animals, the second group had diabetic animals and the third and fourth groups consisted of diabetic animals treated with the test compounds (50 and 100 mg/kg respectively). Test compounds were administered p.o. for 8 days to STZ induced diabetic rats (180-200 g). Blood glucose was measured on day 0, 3 and 8 (Table 3).

The target of a further data set is T1, hPPARγ (Homo sapiens, UniProt P37231).
T1 construct: expressed in transfected cells; host or cells: CV-1 cells
T1 sequence (P37231 1-505): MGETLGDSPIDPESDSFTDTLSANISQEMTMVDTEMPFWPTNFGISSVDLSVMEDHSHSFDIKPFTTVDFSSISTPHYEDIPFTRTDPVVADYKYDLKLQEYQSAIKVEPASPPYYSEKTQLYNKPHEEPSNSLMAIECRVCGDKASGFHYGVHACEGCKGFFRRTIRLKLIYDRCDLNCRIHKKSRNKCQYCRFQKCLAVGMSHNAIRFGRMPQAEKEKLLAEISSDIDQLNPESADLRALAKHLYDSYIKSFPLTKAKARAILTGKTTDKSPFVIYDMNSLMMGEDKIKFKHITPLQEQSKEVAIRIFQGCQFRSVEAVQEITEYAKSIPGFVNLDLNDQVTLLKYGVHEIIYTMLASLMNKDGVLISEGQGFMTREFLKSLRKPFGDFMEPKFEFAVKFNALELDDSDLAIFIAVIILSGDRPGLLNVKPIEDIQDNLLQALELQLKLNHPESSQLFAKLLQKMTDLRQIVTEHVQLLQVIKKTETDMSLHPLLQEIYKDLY
The data set can be described thus: hPPARγ transactivation in cell-based assay (CV-1 cells, luciferase). Set-up: Emax: dose or concentration left out as unconfirmed. How it is done:
Cell based transcription assay was employed to identify hPPAR γ/α agonists. CV-1 cells were maintained in MEM (minimum essential medium) containing 10% FBS (fetal bovine serum). Cells were seeded at a density of 80,000 cells/well in a 24-well plate one day prior to transfection. CV-1 cells were transiently transfected with hPPAR γ/α using Lipofectamine 2000. […] Receptor activation by ligands leads to activation of luciferase expression, which was measured after 15-16 h incubation. The cells were washed with PBS, lysed, and luciferase activity measured in a microplate luminometer. […] Both compounds were synthesized in-house. Maximum activation with the reference agonists was defined as 100%. Receptor activation by test compounds is presented as percentage of maximum activation caused by the respective reference agonists in Table 4(a), Table 4(b) and Table 4(c).

[4] abbreviates: with insulin, concentration not given.
The mark [5] stands for this setting: Rattus norvegicus, Hepatocyte, 10 μM, read-out: Gluconeogenesis (glucose production) % inhibition.
Setting [6] is: Rattus norvegicus, Hepatocyte, read-out: Gluconeogenesis (glucose production) % inhibition.
Setting [7] is: 10 μM, isolated rat hepatocytes.
The mark [8] stands for this setting: 25 μM, isolated rat hepatocytes.
Where [9] appears, read: 50 μM, isolated rat hepatocytes.
Setting [10] is: 100 μM, isolated rat hepatocytes.
The mark [11] stands for this setting: Rattus norvegicus, Hepatocyte, 50 μM, read-out: Gluconeogenesis (glucose production) % inhibition.
[12] abbreviates: Rattus norvegicus, Hepatocyte, 100 μM, read-out: Gluconeogenesis (glucose production) % inhibition.
[13] abbreviates: one entry 'No leakage' for all concentrations tested of the compound (up to 100 μM).

A word on the inhibition: it is the drop in the measured response relative to a control, in per cent. By melting point is commonly meant the temperature, or range, at which the solid turns liquid.

On to `COC(=O)C(Cc1ccc2c(c1)CN(c1ccccn1)CCO2)C(=O)OC` [Compound of Example 2], for which the “Fold stimulation of insulin-stimulated lipogenesis” value (“Fold stimulation” below) in the data set with 3T3-L1 pre-adipocytes (setting [4]) is 2 fold.

On to `O=C1NC(=O)C(=Cc2ccc3c(c2)CN(c2ccccn2)CCO3)S1` [Compound of Example 3, 5-(4-Pyridin-2-yl-2,3,4,5-tetrahydro-benzo[f][1,4]oxazepin-7-ylmethylene)-thiazolidine-2,4-dione], for which the “Gluconeogenesis (glucose production) % inhibition” value in the data set on isolated rat hepatocytes [1] (50 μM) is 42%; in the data set on isolated rat hepatocytes [1] (100 μM), 74%. In the data set with isolated rat hepatocytes [1] (setting [5]), the inhibition at 10 µM came to 10%. Besides, the inhibition at 25 µM in the data set with isolated rat hepatocytes [1] (setting [6]) was 36%. The inhibition at 75 µM in the data set on isolated rat hepatocytes [1] (Rattus norvegicus, Hepatocyte, 75 μM, read-out: Gluconeogenesis (glucose production) % inhibition) stood at 51%. In addition, the LDH % leakage with isolated rat hepatocytes [2] (setting [7]) worked out at 5%; in the data set with isolated rat hepatocytes [2] (setting [8]), 5%; with isolated rat hepatocytes [2] (setting [9]), 6%; in the data set with isolated rat hepatocytes [2] (75 μM, isolated rat hepatocytes) it was 7%; in the data set on isolated rat hepatocytes [2] (setting [10]) it was 7%. Further, the “Fold stimulation” value came to 1.2 fold in the data set on 3T3-L1 pre-adipocytes (1 μM with insulin), 1.4 fold in the data set on 3T3-L1 pre-adipocytes (10 μM with insulin) and 1.7 fold in the data set with 3T3-L1 pre-adipocytes (25 μM with insulin).

For `O=C1NC(=O)C(Cc2ccc3c(c2)CN(c2ccccn2)CCO3)S1` (stereo not drawn) [Compound of Example 4, 5-(4-Pyridin-2-yl-2,3,4,5-tetrahydro-benzo[f][1,4]oxazepin-7-yl-methyl)-thiazolidine-2,4-dione], the melting point lay within 180 to 181 °C. Also, the inhibition at 10 µM with isolated rat hepatocytes [1] (setting [5]) was 27%. Besides, the inhibition at 50 µM with isolated rat hepatocytes [1] (setting [11]) was found to be 35%. In addition, the inhibition at 100 µM in the data set on isolated rat hepatocytes [1] (setting [12]) is 57%. In the data set on isolated rat hepatocytes [2] (setting [13]), the LDH % leakage result is “No”. Further, in the data set with 3T3-L1 pre-adipocytes (10 μM with insulin), the “Fold stimulation” value came to 2 fold. For the same compound, the “Fold stimulation” value with 3T3-L1 pre-adipocytes (100 μM with insulin) was 2.3 fold.

Consider `O=C(O)/C=C\C(=O)O.O=C1NC(=O)C(Cc2ccc3c(c2)CN(c2ccccn2)CCO3)S1` (stereo not drawn) [Compound of Example 5, 5-(4-Pyridine-2-yl-2,3,4,5-tetrahydro-benzo[f][1,4]oxazepin-7-ylmethyl)-thiazolidine-2,4-dione maleate], for which the “Percent reduction in blood glucose” value in data set [3] (50 mpk p.o. for 8 days) worked out at 28%; in data set [3] (100 mpk p.o. for 8 days) it was 31%. Moreover, the Blood glucose in data set [3] (50 mpk p.o., Day 0, STZ diabetic rats) amounted to 16.8 ± 0.9 μmols/ml; in data set [3] (50 mpk p.o., Day 3, STZ diabetic rats) it was 15.9 ± 3.0 μmols/ml; in data set [3] (50 mpk p.o., Day 8, STZ diabetic rats) it was 14.1 ± 1.99 μmols/ml; in data set [3] (100 mpk p.o., Day 0, STZ diabetic rats), 17.0 ± 2.0 μmols/ml; in data set [3] (100 mpk p.o., Day 3, STZ diabetic rats), 16.0 ± 1.09 μmols/ml; in data set [3] (100 mpk p.o., Day 8, STZ diabetic rats), 13.0 ± 0.9 μmols/ml. Besides, on hPPARγ (1 μM, CV-1 cells transfected with hPPARγ), the “PPARγ (Fold activation at 1 μM)” value was determined as 1.8 fold. Moreover, on hPPARγ (CV-1, read-out: PPARγ activation as percentage of maximum activation by rosiglitazone), the Emax came out at 12%.

With `O=C1NC(=O)C(=Cc2ccc3c(c2)CN(c2nc4ccccc4o2)CCO3)S1` [Compound of Example 6, 5-(4-Benzooxazol-2-yl-2,3,4,5-tetrahydro-benzo[f][1,4]oxazepin-7-ylmethylene)-thiazolidine-2,4-dione], in the data set with 3T3-L1 pre-adipocytes (10 μM with insulin), the “Fold stimulation” value was found to be 1.4 fold.

In turn, `O=C(O)/C=C\C(=O)O.O=C1NC(=O)C(=Cc2ccc3c(c2)CN(c2ccccn2)CCO3)S1` [Compound of Example 8, 5-(4-Pyridin-2-yl-2,3,4,5-tetrahydro-benzo[f][1,4]oxazepin-7-ylmethylene)-thiazolidine-2,4-dione maleate] came in with a melting point of 224 to 226 °C. Also, in the data set with isolated rat hepatocytes [1] (10 μM), the “Gluconeogenesis (glucose production) % inhibition” value came out at 9%. The “Gluconeogenesis (glucose production) % inhibition” value in the data set on isolated rat hepatocytes [1] (50 μM) is given as 13%. For the same compound, the “Gluconeogenesis (glucose production) % inhibition” value with isolated rat hepatocytes [1] (100 μM) is on record as 45%. Further, in the data set on isolated rat hepatocytes [2] (setting [13]), the LDH % leakage result is recorded as “No”. Besides, in the data set on 3T3-L1 pre-adipocytes (setting [4]), the “Fold stimulation” value amounted to 1.8 fold.

For the compound `CN(CCOc1ccc(CC2SC(=O)NC2=O)cc1)c1ccccn1` (stereo not drawn) [Rosiglitazone, reference compound], the inhibition at 5 µM with isolated rat hepatocytes [1] (Rattus norvegicus, Hepatocyte, 5 μM, read-out: Gluconeogenesis (glucose production) % inhibition) is 11%. In addition, the inhibition at 10 µM with isolated rat hepatocytes [1] (setting [5]) was found to be 28%. Also, in the data set on isolated rat hepatocytes [1] (setting [6]), the inhibition at 25 µM is 43%. Besides, in the data set with isolated rat hepatocytes [1] (setting [11]), the inhibition at 50 µM came to 57%. Besides, in the data set with isolated rat hepatocytes [1] (setting [12]), the inhibition at 100 µM amounted to 68%. For the same compound, the LDH % leakage is reported as 9% with isolated rat hepatocytes [2] (5 μM, isolated rat hepatocytes); 9% in the data set with isolated rat hepatocytes [2] (setting [7]); 10% in the data set with isolated rat hepatocytes [2] (setting [8]); 11% in the data set with isolated rat hepatocytes [2] (setting [9]); 15% with isolated rat hepatocytes [2] (setting [10]).
